What was measured:
[1] = system: M receptors for serotonin; conditions: isolated rabbit vagus nerve; cited from earlier work
serotonin M receptor [2] = target: T1, serotonin M receptor (Oryctolagus cuniculus, UniProt A0A5F9C9J3); experiment: inhibition of the effect of serotonin on the isolated rabbit heart; conditions: antagonism of serotonin, read-out: pA2 (converted)
T1 construct: isolated rabbit heart; from tissue; host or cells: isolated rabbit heart
T1 sequence (A0A5F9C9J3 1-494): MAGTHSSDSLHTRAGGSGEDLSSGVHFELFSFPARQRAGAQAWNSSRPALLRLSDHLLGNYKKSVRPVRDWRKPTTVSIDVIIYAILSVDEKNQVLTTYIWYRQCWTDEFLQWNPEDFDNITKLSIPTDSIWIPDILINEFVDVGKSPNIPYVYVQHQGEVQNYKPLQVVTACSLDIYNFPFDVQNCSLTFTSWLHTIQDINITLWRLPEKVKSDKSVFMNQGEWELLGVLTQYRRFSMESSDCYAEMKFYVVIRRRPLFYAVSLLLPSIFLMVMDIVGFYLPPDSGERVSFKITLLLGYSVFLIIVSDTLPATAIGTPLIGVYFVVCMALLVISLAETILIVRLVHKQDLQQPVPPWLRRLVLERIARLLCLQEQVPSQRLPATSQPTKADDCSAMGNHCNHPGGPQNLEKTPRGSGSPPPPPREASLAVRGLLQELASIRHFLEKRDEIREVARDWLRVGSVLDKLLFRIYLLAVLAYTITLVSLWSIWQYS
Excerpt: The serotonin M receptor antagonist activity is also indicated by inhibiting the effect of serotonin on the isolated rabbit heart according to the method of J.R.Fozard and A.T.Moborak Ali, European Journal of Pharmacology, (1978), 49, 109-112 at concentrations of 10^-11 to 10^-5 M of the compound of the invention. pD'2 or pA2 values may be calculated in the conventional manner.
The compounds of formula I may be administered in similar manner to known standards for use in these utilities. The suitable daily dosage for a particular compound will depend on a number of factors such as its relative potency of activity.

serotonin M receptor [3] = conditions: blister base, forearm of human volunteers; cited from earlier work
5-HT M-receptors = conditions: slow i.v. injection of 10 mg; cited from earlier work

Row | Compound | block of the action of serotonin on C fibre action potential amplitude [1] | further results
1 | CSc1ccc2c(c1)C(N1CCN(C)CC1)Cc1ccccc1S2 (stereo not drawn) [metitepine] | not blocked | 
2 | COC1CC2CC(OC(=O)c3c[nH]c4ccccc34)CC1N2C (stereo not drawn) [Example 2] |  | Kb (serotonin M receptor [2]): 0.01 nM
3 | CC[C@@H](CO)NC(=O)[C@@H]1C=C2c3cccc4c3c(cn4C)C[C@H]2N(C)C1 [methysergide] | not blocked | 
4 | CCN(CC)C(=O)[C@@H]1C=C2c3cccc4[nH]cc(c34)C[C@H]2N(C)C1 [lysergic acid diethylamide] |  | inhibition of the algesic action of serotonin (serotonin M receptor [3]): not inhibited
5 | CCN(CC)CCNC(=O)c1cc(Cl)c(N)cc1OC [Metoclopramide] |  | effect on a migraine attack (5-HT M-receptors): immediate beneficial effect
6 | CCN(CC)C(=O)[C@@H]1C=C2c3cccc4[nH]c(Br)c(c34)C[C@H]2N(C)C1 [BOL--148] | not blocked | 

Reference: patent US5001133A, “Benzoic acid derivatives” (Sandoz Ltd., priority 1983, dated 1991)
